Read-outs that look alike come from different tables or passages of the source.
System: HSV-1
Test: Plaque reduction assay, HSV-1 clinical isolates on Vero cells
Format: cell-based
Conditions: Human alphaherpesvirus 1, Vero
Outline: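 Susceptibility of HSV-1 isolates was read as percent plaque reduction versus no-drug control, counted on fixed, crystal-violet-stained sub-confluent Vero cells infected at 75 PFU/well beneath CMC. Intermediate resistance lies between cut-offs ACV <3/>40 μM, PCV <10/>40 μM, CDV <24/>30 μM, FOS <250/>400 μM.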

Question: Which results are given for Nc1nc2c(ncn2COCCO)c(=O)[nH]1 [Aciclovir, acyclovir]?
Answer: IC50 (72 h, isolate HPG053, HSV-1 pol L802R + A834S (2405T>G, 2500G>T), also TK R176W, read-out: Drug susceptibility (IC50 value)): > 40 µM; IC50 (isolate HPG002, HSV-1 pol E992K (2974G>A), also TK insert (G) nt 430-436, pol A1169T, read-out: Drug susceptibility (IC50 value)): 21.6 µM; IC50 (isolate HPG003, HSV-1 TK Y172S (515A>C), read-out: Drug susceptibility (IC50 value)): 28 µM; IC50 (isolate HPG005, HSV-1 TK A37V (110C>T), read-out: Drug susceptibility (IC50 value)): 1.46 µM; IC50 (isolate HPG008, HSV-1 TK V204G (611T>G), read-out: Drug susceptibility (IC50 value)): 22.5 µM; IC50 (isolate HPG009, HSV-1 pol E992K (2974G>A), also pol A1169T, read-out: Drug susceptibility (IC50 value)): 1.3 µM; IC50 (isolate HPG010, HSV-1 TK Q125* (373C>T), read-out: Drug susceptibility (IC50 value)): 9.21 µM; IC50 (isolate HPG011, HSV-1 TK Q125* (373C>T), read-out: Drug susceptibility (IC50 value)): 13.8 µM; IC50 (isolate HPG013, HSV-1 TK M121I (363G>A), read-out: Drug susceptibility (IC50 value)): 18.8 µM; IC50 (isolate HPG013, HSV-1 pol D83A (248A>C), also TK M121I, pol A1169T, read-out: Drug susceptibility (IC50 value)): 18.8 µM; IC50 (isolate HPG014, HSV-1 pol A1115T (3343G>A), read-out: Drug susceptibility (IC50 value)): 1.41 µM; IC50 (isolate HPG014, HSV-1 pol R993C (2977C>T), read-out: Drug susceptibility (IC50 value)): 1.41 µM; IC50 (isolate HPG014, HSV-1 pol T54A (160A>G), read-out: Drug susceptibility (IC50 value)): 1.41 µM; IC50 (isolate HPG015, HSV-1 pol 966stop or F965_I966insF (2892_2893insT to 2895_2896insT), read-out: Drug susceptibility (IC50 value)): 2.4 µM; IC50 (isolate HPG018, HSV-1 TK frameshift (881delC to 885delC), read-out: Drug susceptibility (IC50 value)): 24.7 µM; IC50 (isolate HPG018, HSV-1 pol P1199T (3595C>A), also TK deletion (C) nt 881-885, pol A1169T, read-out: Drug susceptibility (IC50 value)): 24.7 µM; IC50 (isolate HPG019, HSV-1 pol K750T (2249A>C), also TK deletion (G) nt 430-436, pol A1169T, read-out: Drug susceptibility (IC50 value)): > 40 µM; IC50 (isolate HPG020, HSV-1 pol S911N (2732G>A), also pol A1169T, read-out: Drug susceptibility (IC50 value)): 0.56 µM; IC50 (isolate HPG021, HSV-1 pol R681Q (2042G>A), also TK deletion (G) nt 430-436, read-out: Drug susceptibility (IC50 value)): > 40 µM; IC50 (isolate HPG021, HSV-1 pol T839A (2515A>G), also TK deletion (G) nt 430-436, read-out: Drug susceptibility (IC50 value)): > 40 µM; IC50 (isolate HPG025, HSV-1 pol E850Q (2548G>C), also TK R216C, read-out: Drug susceptibility (IC50 value)): 22.2 µM; IC50 (isolate HPG026, HSV-1 pol E850Q (2548G>C), also TK R216C, pol A1169T, read-out: Drug susceptibility (IC50 value)): 18.1 µM; IC50 (isolate HPG027, HSV-1 TK V204G (611T>G), also pol S914L, A1169AT, read-out: Drug susceptibility (IC50 value)): > 40 µM; IC50 (isolate HPG027, HSV-1 pol S914L (2741C>T), also TK V204G, pol A1169T, read-out: Drug susceptibility (IC50 value)): > 40 µM; IC50 (isolate HPG029, HSV-1 TK Y172S (515A>C), read-out: Drug susceptibility (IC50 value)): > 40 µM; IC50 (isolate HPG031, HSV-1 pol E1120A (3359A>C), also a TK resistance mutation (footnote e), read-out: Drug susceptibility (IC50 value)): 27.7 µM; IC50 (isolate HPG031, HSV-1 pol G139R (415G>C or 415G>A), also a TK resistance mutation (footnote e), read-out: Drug susceptibility (IC50 value)): 27.7 µM; IC50 (isolate HPG032, HSV-1 TK 183* (437_438insA), read-out: Drug susceptibility (IC50 value)): 27.4 µM; IC50 (isolate HPG033, HSV-1 TK I358L (1072A>C), also TK T287M, read-out: Drug susceptibility (IC50 value)): 38.9 µM; IC50 (isolate HPG033, HSV-1 pol N1046T (3137A>C), also TK T287M, pol A1169T, read-out: Drug susceptibility (IC50 value)): 38.9 µM; IC50 (isolate HPG035, HSV-1 pol S239L (716C>T), also pol S724N, read-out: Drug susceptibility (IC50 value)): 5.43 µM; IC50 (isolate HPG037, HSV-1 TK R256W (766C>T), read-out: Drug susceptibility (IC50 value)): 24.8 µM; IC50 (isolate HPG037, HSV-1 TK Y239H (715T>C), read-out: Drug susceptibility (IC50 value)): 24.8 µM; IC50 (isolate HPG039, HSV-1 TK 85* or H58fs (169delC, 170delC, 171delC, or 172delC), read-out: Drug susceptibility (IC50 value)): 25.6 µM; IC50 (isolate HPG040, HSV-1 pol S911N (2732G>A), also TK deletion (C) nt 896-900, pol A1169T, read-out: Drug susceptibility (IC50 value)): > 40 µM; IC50 (isolate HPG041, HSV-1 pol S911N (2732G>A), also pol A1169T, read-out: Drug susceptibility (IC50 value)): 0.5 µM; IC50 (isolate HPG042, HSV-1 pol A972V (2915C>T), also TK deletion (C) nt 881-885, pol A1169T, read-out: Drug susceptibility (IC50 value)): > 40 µM; IC50 (isolate HPG042, HSV-1 pol G22R (64G>A), also TK deletion (C) nt 881-885, pol A1169T, read-out: Drug susceptibility (IC50 value)): > 40 µM; IC50 (isolate HPG043, HSV-1 TK 183* (437_438insA), read-out: Drug susceptibility (IC50 value)): 28.5 µM; IC50 (isolate HPG045, HSV-1 TK L49R (146T>G), read-out: Drug susceptibility (IC50 value)): 31.5 µM; IC50 (isolate HPG045, HSV-1 pol L419I (1255C>A), also TK L49R, pol A1169T, read-out: Drug susceptibility (IC50 value)): 31.5 µM; IC50 (isolate HPG046, HSV-1 TK I166N (497T>A), read-out: Drug susceptibility (IC50 value)): 11.4 µM; IC50 (isolate HPG050, HSV-1 TK Q34* (100C>T), read-out: Drug susceptibility (IC50 value)): > 40 µM; IC50 (isolate HPG051, HSV-1 pol D83A (248A>C), also TK R176stop, read-out: Drug susceptibility (IC50 value)): 29.2 µM; IC50 (isolate HPG052, HSV-1 TK Q34* (100C>T), read-out: Drug susceptibility (IC50 value)): 8.45 µM; IC50 (isolate HPG053, HSV-1 pol S911N (2732G>A), also TK R176W, pol A1169T, read-out: Drug susceptibility (IC50 value)): > 40 µM; IC50 (isolate HPG054, HSV-1 pol E992K (2974G>A), also TK insert (G) nt 430-436, pol A1169T, read-out: Drug susceptibility (IC50 value)): 8.25 µM; IC50 (read-out: Drug susceptibility (IC50 value), isolate HPG005, HSV-1 TK A192T (574G>A)): 1.46 µM; IC50 (read-out: Drug susceptibility (IC50 value), isolate HPG006, HSV-1 pol G121S (361G>A), also a TK resistance mutation (footnote a)): > 40 µM; IC50 (read-out: Drug susceptibility (IC50 value), isolate HPG012, HSV-1 pol G985E (2954G>A), also TK A93V): > 40 µM; IC50 (read-out: Drug susceptibility (IC50 value), isolate HPG016, HSV-1 pol A1169T (3505G>A)): 3.55 µM; IC50 (read-out: Drug susceptibility (IC50 value), isolate HPG037, HSV-1 TK L69M (205>A), also TK Y239H): 24.8 µM; IC50 (read-out: Drug susceptibility (IC50 value), isolate HPG042, HSV-1 TK frameshift (881delC to 885delC)): > 40 µM; IC50 (read-out: Drug susceptibility (IC50 value), isolate HPG047, HSV-1 pol E680 (2039A>C), also TK deletion (C) nt 548-553, pol A1169T): 22.4 µM
